Laboratory results as given in patent US20240245631A1, “METHODS OF TREATING LENNOX-GASTAUT SYNDROME USING FENFLURAMINE” (ZOGENIX INTERNATIONAL LIMITED, priority 2015, published 2024).

Legend:
[1] = tested on: self-induced photosensitive seizures; settings: four cases; cited from earlier work
[2] = tested on: children with refractory epilepsy; settings: 0.5 to 1 mg/kg/day; cited from earlier work
[3] = tested on: Lennox-Gastaut patients; assay: Open-label Phase 2 add-on study of low-dose fenfluramine in Lennox-Gastaut patients; format: in vivo, human
Procedure: The efficacy of fenfluramine as an add-on treatments in Lennox-Gastaut patients is studied in a Phase 2 Clinical Trial. The study protocol is described and preliminary results are presented here.
An open-label, non-placebo controlled add-on study was designed to assess the efficacy and safety of low-dose add-on fenfluramine across a range of fenfluramine doses (0.2, 0.4, 0.8 mg/kg/day, to a maximum of 30 mg/day). The trial was conducted over a 20 week period, with responders eligible for follow-on treatment, with follow-up appointments at three month intervals.
Patients were recruited from childhood epilepsy clinics in Leuven and Antwerp, Belgium, and selected for inclusion in the study according to criteria comprising a combination of age, physical and psychological characteristics, and resistance to treatment with conventional therapies. Details of selection criteria are provided below.
Study duration is 20 weeks, ending at week 20 after inclusion of 20 patients, i.e., 20 weeks following the enrollment of the 20th patient. Patients who respond to treatment are enrolled in a follow-on study and assessed on an ongoing basis.
Patients are examined during six clinical visits (V1 through V6) scheduled at four week intervals, ending with V6 at week 20. […] At each visit, endpoints and safety criteria are assessed, and dosages adjusted as necessary.
Add-on treatment is begun at V2. […] Endpoints and safety criteria are assessed (seizure counting, adverse effects, pregnancy testing, and quality of life indicators (CGI, sleep scale)). […]
At each of V3-V5, endpoints and safety criteria are again assessed. […]
At V6, endpoints and safety criteria are again assessed. […]
Fenfluramine: Oral fenfluramine solution (2.5 mg/ml or 5 mg/ml) is provided by Zogenix Pharma. […] Patient compliance is assessed by control of oral solution quantity at each visit and collection of seizure diary with notification of drug intake. […]
Safety assessment: Treatment safety is assessed using a combination of physical examination, blood testing, cardiac evaluation, and adverse event reporting. […]

[4] = tested on: child suffering pattern sensitivity-induced seizures; settings: single case, resistant to anticonvulsive treatment; cited from earlier work

## CCNC(C)Cc1cccc(C(F)(F)F)c1 (stereo not drawn) [fenfluramine, 3-trifluoromethyl-N-ethylamphetamine]
[1]
  response of self-induced photosensitive seizures: responded to treatment with fenfluramine
[2]
  number of seizures experienced by the patients: reduction in the number of seizures
[3]; 3 patients receiving 0.2 mg/kg/day, add-on, interim results
  total seizure frequency: significant decreases in total seizure frequency
[3]; 9 patients receiving add-on fenfluramine, interim results
  serious side effects: None of the 9 patients receiving fenfluramine reported serious side effects
[3]; low-dose add-on treatment, early interim data
  seizure frequency (overall interim conclusion): effective in reducing seizure frequency
[4]
  self-induced seizures: successfully terminated these self-induced seizures
